Measurements as given in PubChem BioAssay AID330 (DTP/NCI, 2004).
Values joined by “and” are separate entries in the source; they are usually repeats but may differ in a detail not shown here. Equal values may be shown once. Inconclusive results and toxic doses are left out.

System: P388 leukemia ip, CD2F1 mice, survival T/C
Test: NCI In Vivo Anticancer Drug Screen. Data for tumor model P388 Leukemia (intraperitoneal) in CD2F1 (CDF1) mice
Settings: endpoint: median survival time, higher = longer survival
Summary of the method: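 Mice carrying the transplanted tumor received test compound or vehicle. Survival was recorded in each group, and the value is the treated-group measurement divided by that of the vehicle-treated control group.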

[1] = dose: 60.0 mg/kg/injection, schedule: Q01DX005 (ip), vehicle: saline with Tween-80
[2] = dose: 120.0 mg/kg/injection, schedule: Q01DX005 (ip), vehicle: saline with Tween-80
[3] = dose: 240.0 mg/kg/injection, schedule: Q01DX005 (ip), vehicle: saline with Tween-80
[4] = dose: 50.0 mg/kg/injection, schedule: Q01DX009 (ip), vehicle: saline with Tween-80
[5] = dose: 100.0 mg/kg/injection, schedule: Q01DX009 (ip), vehicle: saline with Tween-80
[6] = dose: 200.0 mg/kg/injection, schedule: Q01DX009 (ip), vehicle: saline with Tween-80
[7] = dose: 60.0 mg/kg/injection, schedule: Q01DX005 (ip), vehicle: Klucel (hydroxypropylcellulose) (HPC)
[8] = dose: 120.0 mg/kg/injection, schedule: Q01DX005 (ip), vehicle: Klucel (hydroxypropylcellulose) (HPC)
[9] = dose: 240.0 mg/kg/injection, schedule: Q01DX005 (ip), vehicle: Klucel (hydroxypropylcellulose) (HPC)
[10] = dose: 25.0 mg/kg/injection, schedule: Q01DX009 (ip), vehicle: saline with Tween-80
[11] = dose: 25.0 mg/kg/injection, schedule: Q01DX009 (ip), vehicle: Klucel (hydroxypropylcellulose) (HPC)
[12] = dose: 50.0 mg/kg/injection, schedule: Q01DX009 (ip), vehicle: Klucel (hydroxypropylcellulose) (HPC)
[13] = dose: 100.0 mg/kg/injection, schedule: Q01DX009 (ip), vehicle: Klucel (hydroxypropylcellulose) (HPC)
[14] = dose: 200.0 mg/kg/injection, schedule: Q01DX009 (ip), vehicle: Klucel (hydroxypropylcellulose) (HPC)
[15] = dose: 400.0 mg/kg/injection, schedule: Q01DX009 (ip), vehicle: saline with Tween-80
[16] = dose: 100.0 mg/kg/injection, schedule: Q01DX005 (ip), vehicle: saline with Tween-80
[17] = dose: 12.5 mg/kg/injection, schedule: Q01DX009 (ip), vehicle: saline
[18] = dose: 25.0 mg/kg/injection, schedule: Q01DX009 (ip), vehicle: saline
[19] = dose: 50.0 mg/kg/injection, schedule: Q01DX009 (ip), vehicle: saline
[20] = dose: 200.0 mg/kg/injection, schedule: Q01DX009 (ip), vehicle: saline

SMILES: CN1CC(=O)NC2C(=CN(Cc3ccccc3)c3ccccc32)C1=O (stereo not drawn)
- T/C [1]: 100 % of control
- T/C [2]: 90 % of control
- T/C [3]: 90 % of control

SMILES: CCOC(=O)c1[nH]c2ccc(OC)c3c2c1CCC3=O
- T/C [4]: 92 % of control
- T/C [5]: 92 % of control
- T/C [6]: 92 % of control

SMILES: CN=C1OC2(c3ccccc3)C3=C(OC(=NC)N2C)C(=O)OC3(c2ccccc2)N1C (stereo not drawn)
- T/C [7]: 98 % of control
- T/C [8]: 95 % of control
- T/C [9]: 91 % of control

SMILES: COc1cc2c(cc1OC)C1=C(CC2)C2CCCN2CC1 (stereo not drawn)
- T/C (dose: 12.5 mg/kg/injection, schedule: Q04DX003 (ip), vehicle: saline): 104 % of control
- T/C (dose: 25.0 mg/kg/injection, schedule: Q04DX003 (ip), vehicle: saline): 100 % of control

SMILES: N=c1oc2ccccc2cc1C(=O)NNC(=O)c1ccncc1
- T/C (dose: 100.0 mg/kg/injection, schedule: Q01DX001 (ip), vehicle: saline): 96 % of control
- T/C (dose: 200.0 mg/kg/injection, schedule: Q01DX001 (ip), vehicle: saline): 96 % of control
- T/C (dose: 400.0 mg/kg/injection, schedule: Q01DX001 (ip), vehicle: saline): 102 % of control

SMILES: CN(C)P(=O)(N(C)C)N1CCCCC1
- T/C [4]: 97 % of control
- T/C [5]: 114 % of control
- T/C [6]: 100 % of control

SMILES: C[n+]1cccc2c1C(=O)C(=O)c1ncccc1-2
- T/C (dose: 12.5 mg/kg/injection, schedule: Q01DX009 (ip), vehicle: saline with Tween-80): 100 % of control
- T/C [10]: 108 % of control
- T/C [4]: 109 % of control

SMILES: COc1nc(NC2OCC(OC(C)=O)C(OC(C)=O)C2OC(C)=O)c(N=CC=Nc2c(NC3OCC(OC(C)=O)C(OC(C)=O)C3OC(C)=O)nc(OC)n(C)c2=O)c(=O)n1C (stereo not drawn)
- T/C [1]: 92 % of control
- T/C [2]: 91 % of control
- T/C [3]: 91 % of control

SMILES: Cn1c(=O)c2c(nc(Br)n2C)n(C)c1=O
- T/C [11]: 94 % of control
- T/C [12]: 109 % of control

SMILES: Cc1cc(C)c2nc(N/N=C/c3cccnc3)sc2c1
- T/C [12]: 95 % of control
- T/C [13]: 92 % of control
- T/C [14]: 92 % of control

SMILES: O=c1cc(CO)[nH]cc1O
- T/C [12]: 99 % of control
- T/C [13]: 123 % of control
- T/C (dose: 120.0 mg/kg/injection, schedule: Q01DX009 (ip), vehicle: saline with Tween-80): 87 % of control
- T/C [14]: 122 % of control
- T/C [15]: 112 % of control

SMILES: CC(=O)c1c(OCC(O)CN(CCO)CCO)ccc2c(C)cc(=O)oc12 (stereo not drawn)
- T/C (dose: 50.0 mg/kg/injection, schedule: Q01DX005 (ip), vehicle: saline with Tween-80): 107 % of control
- T/C [16]: 104 % of control
- T/C (dose: 200.0 mg/kg/injection, schedule: Q01DX005 (ip), vehicle: saline with Tween-80): 108 % of control

SMILES: CC1C2=C(C(=O)N1Cc1ccccc1)C(C1OC(COC(=O)c3ccccc3)C(OC(=O)c3ccccc3)C1OC(=O)c1ccccc1)C(=O)N(C)C2=O (stereo not drawn)
- T/C (dose: 39.0 mg/kg/injection, schedule: Q01DX009 (ip), vehicle: Klucel (hydroxypropylcellulose) (HPC)): 97 % of control
- T/C (dose: 78.0 mg/kg/injection, schedule: Q01DX009 (ip), vehicle: Klucel (hydroxypropylcellulose) (HPC)): 99 % of control
- T/C (dose: 156.0 mg/kg/injection, schedule: Q01DX009 (ip), vehicle: Klucel (hydroxypropylcellulose) (HPC)): 95 % of control

SMILES: CC(=O)Nc1ccn(C2OC(COC(C)=O)C(OC(C)=O)C2OC(C)=O)c(=O)n1 (stereo not drawn)
- T/C (dose: 62.5 mg/kg/injection, schedule: Q01DX009 (ip), vehicle: Klucel (hydroxypropylcellulose) (HPC)): 102 % of control
- T/C (dose: 125.0 mg/kg/injection, schedule: Q01DX009 (ip), vehicle: Klucel (hydroxypropylcellulose) (HPC)): 119 % of control
- T/C (dose: 250.0 mg/kg/injection, schedule: Q01DX009 (ip), vehicle: Klucel (hydroxypropylcellulose) (HPC)): 157 % of control
- T/C (dose: 500.0 mg/kg/injection, schedule: Q01DX009 (ip), vehicle: Klucel (hydroxypropylcellulose) (HPC)): 155 % of control
- T/C (dose: 1000.0 mg/kg/injection, schedule: Q01DX009 (ip), vehicle: Klucel (hydroxypropylcellulose) (HPC)): 174 % of control

SMILES: Oc1cc2c(cc1C(c1ccc(F)cc1)N1CCCC1)OCO2 (stereo not drawn)
- T/C [7]: 109 % of control
- T/C [8]: 111 % of control
- T/C [9]: 111 % of control

SMILES: CN(C)N=Nc1ccc(S(N)(=O)=O)cc1
- T/C [11]: 93 % of control
- T/C [12]: 114 % of control
- T/C [13]: 100 % of control

SMILES: ICC1COC(CI)CO1 (stereo not drawn)
- T/C [5]: 100 % of control
- T/C [6]: 104 % of control
- T/C [15]: 90 % of control

SMILES: CCOC(=O)C(C)(/C=N/NS(=O)(=O)c1ccc(C)cc1)c1ccccc1 (stereo not drawn)
- T/C [12]: 106 % of control
- T/C [13]: 98 % of control
- T/C [14]: 100 % of control

SMILES: CCOC(=O)NNc1nc(-c2ccccc2)nc2nonc12
- T/C [10]: 91 % of control
- T/C [5]: 110 % of control

SMILES: CCCCCCC(=O)/C=C/c1ccc(OCOC)cc1
- T/C (dose: 50.0 mg/kg/injection, schedule: Q01DX009 (ip), vehicle: saline + alcohol): 97 % of control
- T/C (dose: 100.0 mg/kg/injection, schedule: Q01DX009 (ip), vehicle: saline + alcohol): 121 % of control
- T/C (dose: 200.0 mg/kg/injection, schedule: Q01DX009 (ip), vehicle: saline + alcohol): 100 % of control

SMILES: N#CCCn1nnc2ccccc21
- T/C (dose: 6.25 mg/kg/injection, schedule: Q01DX009 (ip), vehicle: Klucel (hydroxypropylcellulose) (HPC)): 91 % of control
- T/C (dose: 12.5 mg/kg/injection, schedule: Q01DX009 (ip), vehicle: Klucel (hydroxypropylcellulose) (HPC)): 94 % of control
- T/C [11]: 95 % of control
- T/C [12]: 88 % of control

SMILES: O=S1(=O)C2C=CCCC1C=C2 (stereo not drawn)
- T/C [17]: 92 % of control
- T/C [18]: 96 % of control
- T/C [19]: 100 % of control
- T/C [20]: 100 % of control

SMILES: COc1c(CNC(=O)CCl)cc2[nH]c(C)cc2c1CNC(=O)CCl
- T/C [13]: 153 % of control
- T/C [14]: 150 % of control

SMILES: Cc1ccc(/[N+]([O-])=C/c2ccccc2)cc1
- T/C [1]: 92 % of control
- T/C [2]: 94 % of control
- T/C [3]: 89 % of control

SMILES: Nc1cccc2c1-c1ccccc1C2=O
- T/C (dose: 6.25 mg/kg/injection, schedule: Q01DX005 (ip), vehicle: saline with Tween-80): 98 % of control
- T/C (dose: 12.5 mg/kg/injection, schedule: Q01DX005 (ip), vehicle: saline with Tween-80): 98 % of control
- T/C (dose: 25.0 mg/kg/injection, schedule: Q01DX005 (ip), vehicle: saline with Tween-80): 92 % of control
- T/C [16]: 92 % of control

SMILES: CC(=O)Oc1c(C)[nH]ccc1=O
- T/C [18]: 103 % of control and 104 % of control
- T/C [19]: 107 % of control and 112 % of control and 116 % of control
- T/C (dose: 100.0 mg/kg/injection, schedule: Q01DX009 (ip), vehicle: saline): 116 % of control
- T/C [20]: 154 % of control
- T/C (dose: 400.0 mg/kg/injection, schedule: Q01DX009 (ip), vehicle: saline): 152 % of control and 161 % of control and 179 % of control
- T/C (dose: 800.0 mg/kg/injection, schedule: Q01DX009 (ip), vehicle: saline): 180 % of control

SMILES: Cc1cn(C2CC3[O][Sn]([c]4ccccc4)([c]4ccccc4)[O]CC3O2)c(=O)[nH]c1=O (stereo not drawn)
- T/C [17]: 124 % of control
- T/C [18]: 100 % of control

SMILES: CCOC(OCC)c1cccc([N+](=O)[O-])c1
- T/C (dose: 100.0 mg/kg/injection, schedule: Q04DX003 (ip), vehicle: saline with Tween-80): 112 % of control
- T/C (dose: 200.0 mg/kg/injection, schedule: Q04DX003 (ip), vehicle: saline with Tween-80): 106 % of control
- T/C (dose: 400.0 mg/kg/injection, schedule: Q04DX003 (ip), vehicle: saline with Tween-80): 117 % of control

SMILES: COC1(OC)OC(c2ccccc2)=C(C#N)C(c2ccccc2)C1(OC)OC (stereo not drawn)
- T/C [7]: 102 % of control
- T/C [8]: 100 % of control
- T/C [9]: 96 % of control

SMILES: C#CCOC1CC(C)(O)Cc2cc3c(c(O)c21)C(=O)c1c(O)cc2c(c1C3=O)OC1OC2(C)C(O)C(N(C)C)C1O (stereo not drawn)
- T/C (dose: 20.0 mg/kg/injection, schedule: Q01DX009 (ip), vehicle: other): 89 % of control

SMILES: Oc1ccc2c(c1)Cc1cc3ccccc3nc1-2
- T/C [11]: 101 % of control
- T/C [12]: 98 % of control
- T/C [13]: 94 % of control
- T/C [14]: 103 % of control

SMILES: CCCCCC/C(CC(SCC)c1ccccc1Cl)=N\NC(N)=S (stereo not drawn)
- T/C [1]: 91 % of control
- T/C [2]: 96 % of control
- T/C [3]: 91 % of control

SMILES: N#Cc1ccccc1N=NNc1ccc(-c2nc(N)nc(N)n2)cc1
- T/C (dose: 50.0 mg/kg/injection, schedule: Q04DX003 (ip), vehicle: saline): 100 % of control
- T/C (dose: 100.0 mg/kg/injection, schedule: Q04DX003 (ip), vehicle: saline): 95 % of control
- T/C (dose: 200.0 mg/kg/injection, schedule: Q04DX003 (ip), vehicle: saline): 100 % of control
